Data on two compounds can be found in patent publication US20200270557A1, “HUMAN IN VITRO ORTHOTOPIC AND METASTATIC MODELS OF CANCER” (PRESIDENT AND FELLOWS OF HARVARD COLLEGE, priority 2017, published 2020).

The subject of assay [1] is H1975 NSCLC cells. The assay is described as follows: growth inhibition of H1975 NSCLC cells cultured alone under conventional static culture conditions. Particulars: Homo sapiens, NCI-H1975, read-out: half-maximal inhibition. The assay is classed as cell-based.
Assay [2] deals with H1975 NSCLC cells. The experiment in a line: NSCLC cancer cell growth in microfluidic device (orthotopic lung model) with or without breathing motions. The assay is classed as cell-based, human. As to conditions: H1975 NSCLC cells cultured within the microfluidic devices.
Protocol: Primary human lung microvascular endothelial cells were plated the same way as discussed above, except that these cells were plated first with endothelial growth medium. The GFP-labeled NSCLC tumor cells and primary alveolar epithelial cells were then plated using the same method as described above. The following day, the upper microchannel was perfused with epithelial growth medium containing 1 μM dexamethasone and flushed manually for 2-3 days, after which the medium in the upper microchannel was removed to create an air-liquid interface, while the lower microchannel was continuously perfused with air-liquid interface medium at 60 μL/hr. […]
Analysis of cancer cell growth and responses of cancer cells can be monitored visually through the microfluidic device. As discussed above, cancer cell growth can be monitored non-invasively using fluorescence microscopy, such as with a Zeiss TIRF/LSM 710 confocal microscopy and Hamamatsu ImagEM-1K BackThinned EMCCD camera. The number of GFP-labeled cancer cells can be estimated using fluorescence microscopy based on a standard curve generated experimentally that correlates cell density to GFP fluorescence intensity. […]
Assay [3] has as its system c-Met. The assay is described as follows: c-Met expression and phosphorylation in NSCLC cells under cyclic mechanical strain. The assay is classed as cell-based, human. An excerpt: Further, many patients with the EGFR […]/T790M mutation who develop resistance to 3rd generation TKIs overexpress the tyrosine protein kinase c-Met, and c-MET overexpression has been implicated as a mechanism of resistance to TKI therapy in NSCLC patients. […] Thus, mechanical breathing motions also may suppress NSCLC cell response to TKI therapy by altering this signaling pathway.

Turning to `C#Cc1cccc(Nc2ncnc3cc(OCCOC)c(OCCOC)cc23)c1` [erlotinib], in assay [1], the IC50 was about 100 nM. Moreover, in assay [2], the “response of NSCLC cells to TKIs” value is “responded”.
`C=CC(=O)Nc1cccc(Nc2nc(Nc3ccc(N4CCN(C(C)=O)CC4)cc3OC)ncc2C(F)(F)F)c1` [rociletinib]: the IC50 in assay [1] was over 1000 nM. Besides, the “effect of increasing dose on expression and phosphorylation of c-Met” value in assay [3] was “no significant effect”.
